Measured values reported in article PMC6803667, “Binding site plasticity in viral PPxY Late domain recognition by the third WW domain of human NEDD4” (Scientific Reports, 2019).
Several values for one entry are separate records, joined by “and”; a condition that tells them apart may be missing. Identical values can stand only once. Like-named read-outs stand apart in the source and are kept apart here. Residues, ends and D or L forms follow the SMILES beside them. No end group written: not given here.

Experiments:
rNEDD4-WW2 = conditions: cited from earlier work
dNEDD4-WW3 = conditions: cited from earlier work
hNEDD4-WW3 [1] = target: T1, hNEDD4-WW3 (Homo sapiens, UniProt P46934); assay: biochemical; assay type: binding
T1 construct: comprising aminoacids 834–878 (UniProtKB/Swiss-Prot code P46934); GST-His (pETM-30, TEV site) (N, cleaved yes); made in house; host or cells: E. coli BL21/DE3 is printed only for the pETM-11 NMR construct

hNEDD4-WW3 [2] = target: T1, hNEDD4-WW3
hNEDD4-WW3 [3] = target: T1, hNEDD4-WW3; conditions: cited from earlier work
hITCHY-WW3 = conditions: cited from earlier work
hYAP-WW2 [4] = target: T2, hYAP-WW2 (Homo sapiens, UniProt P46937); assay type: binding; conditions: pH 7
T2 construct: comprising aminoacids 165–209 and 228–271 respectively (UniProtKB/Swiss-Prot code Q7Z574); GST-His (pETM-30, TEV site) (N, cleaved yes); made in house

hNEDD4-WW3 [5] = target: T1, hNEDD4-WW3; assay: biochemical; assay type: binding; remark: listed apart in the source
hYAP-WW1 [6] = target: T3, hYAP-WW1 (Homo sapiens, UniProt P46937); assay: biochemical; assay type: binding
T3 construct: comprising aminoacids 165–209 and 228–271 respectively (UniProtKB/Swiss-Prot code Q7Z574); GST-His (pETM-30, TEV site) (N, cleaved yes); made in house

hYAP-WW1 [7] = target: T3, hYAP-WW1; conditions: cited from earlier work
hYAP-WW1 [8] = target: T3, hYAP-WW1; assay type: binding; conditions: pH 7
NEDD4L-WW2 = conditions: cited from earlier work
SMURF1-WW2 = conditions: cited from earlier work
SMURF2-WW3 = conditions: cited from earlier work
hYAP-WW2 [9] = target: T2, hYAP-WW2; conditions: cited from earlier work
SU(dx)-WW4 = conditions: cited from earlier work
hNEDD4L-WW3 = conditions: cited from earlier work

T2 sequence (P46937 228-271): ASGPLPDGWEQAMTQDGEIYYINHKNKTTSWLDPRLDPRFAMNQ
T1 sequence (P46934 834-878): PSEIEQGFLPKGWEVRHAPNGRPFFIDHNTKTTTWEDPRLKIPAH
T3 sequence (P46937 165-209): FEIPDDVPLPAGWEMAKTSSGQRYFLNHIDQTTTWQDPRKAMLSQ

For “APLpSPMpSPPGYKLV [CX43-Cter, Cx43 carboxyl terminus peptide of literature complex 2N8T]”, the Kd (rNEDD4-WW2) is listed as 430 µM.

In the case of “TGLPSYDEALH [Comm, Comm PY motif peptide of literature complex 2EZ5]”, the Kd (dNEDD4-WW3) is given as 3.1 µM.

With `CC[C@H](C)[C@H](NC(=O)[C@H](CCC(N)=O)NC(=O)[C@@H]1CCCN1C(=O)[C@H](CC(=O)O)NC(=O)[C@H](CO)NC(C)=O)C(=O)N1CCC[C@H]1C(=O)N1CCC[C@H]1C(=O)N1CCC[C@H]1C(=O)N[C@@H](Cc1ccc(O)cc1)C(=O)N[C@H](C(=O)N[C@@H](CCC(=O)O)C(=O)N1CCC[C@H]1C(N)=O)C(C)C` [HTLV1] (Ac-SDPQIPPPYVEP-NH2) the “ΔΔH HTLV-Ebola” value (hNEDD4-WW3 [1]) was −20 kJ/mol^−1, the “amount by which theoretical enthalpy is smaller than the experimental enthalpy” value (hNEDD4-WW3 [2]) was 12 kcal/mol and the ΔH conf (hNEDD4-WW3 [2]) was -49,97 kJ·mol -1.

For “RPE−5AP−3P−2SY0AEVVT (RPEAPPSYAEVVT) [ARRDC3]”, the Kd (hNEDD4-WW3 [3]) is given as 3.3 µM and 3 µM.

For “TAPPPAYATLG [αENaC, αENaC PY motif peptide of literature complex 2M30]”, the ΔH conf (hNEDD4-WW3 [2]) is given as -48,29 kJ·mol -1, the Kd (hNEDD4-WW3 [3]) is given as 45 µM and the “ΔH exp (25C)” value (hNEDD4-WW3 [3]) is given as -58,2 kJ·mol -1.

In the case of “EEPPPPYED [Epstein-Barr, Epstein-Barr peptide of literature complex 2JO9]”, the Kd (hITCHY-WW3) is given as 52 µM.

Work on `CSCC[C@H](NC(C)=O)C(=O)N[C@@H](CCC(N)=O)C(=O)N[C@@H](Cc1ccc(O)cc1)C(=O)N[C@@H](CC(C)C)C(=O)N[C@@H](CC(N)=O)C(=O)N1CCC[C@H]1C(=O)N1CCC[C@H]1C(=O)N1CCC[C@H]1C(=O)N[C@@H](Cc1ccc(O)cc1)C(=O)N[C@@H](C)C(=O)N[C@@H](CC(=O)O)C(=O)N[C@@H](Cc1c[nH]cn1)C(N)=O` [Marburg] yielded a Kd (hNEDD4-WW3 [1]) of 51 ± 1 µM and a ΔHap (hNEDD4-WW3 [1]; pH 7) of -17.5 ± 0.17 kcal/mol.

With `CC[C@H](C)[C@H](NC(C)=O)C(=O)N[C@@H](CC(C)C)C(=O)N1CCC[C@H]1C(=O)N[C@H](C(=O)N[C@@H](C)C(=O)N1CCC[C@H]1C(=O)N1CCC[C@H]1C(=O)N[C@@H](CCC(=O)O)C(=O)N[C@@H](Cc1ccc(O)cc1)C(=O)N[C@@H](CCSC)C(=O)N[C@@H](CCC(=O)O)C(=O)N[C@@H](C)C(N)=O)[C@@H](C)O` [Ebola] the “amount by which theoretical enthalpy is smaller than the experimental enthalpy” value (hNEDD4-WW3 [2]) was 7.17 kcal/mol and the ΔH conf (hNEDD4-WW3 [2]) was -30,01 kJ·mol -1.

For `CC(=O)N1CCC[C@H]1C(=O)N1CCC[C@H]1C(=O)N1CCC[C@H]1C(=O)N[C@@H](Cc1ccc(O)cc1)C(N)=O` [PPPY] (Ac-PPPY-NH2), the Kd (hYAP-WW2 [4]) was “n. b”, the Kd (hNEDD4-WW3 [5]) was 201 µM and the ΔHap (hNEDD4-WW3 [5]; pH 7) was “^*−38 ± 1 kJ mol^−1”. For the same compound, the Kd (hYAP-WW1 [6]) was 320 ± 30 µM and the ΔHap (hYAP-WW1 [6]; pH 7) was “^*−39 ± 3 kJ mol^−1”.

In the case of RPE−5AP−3P−2SY0AEVVT [ARRDC3], the ΔH conf (hNEDD4-WW3 [2]) is given as -64,67 kJ·mol -1 and the “ΔH exp (25C)” value (hNEDD4-WW3 [3]) is given as -75,4 kJ·mol -1.

In the case of “PLPPY [peptide of literature complex 1K9R]”, the Kd (hYAP-WW1 [7]) is given as 500 µM.

With `CC(=O)N1CCC[C@H]1C(=O)N1CCC[C@H]1C(=O)N1CCC[C@H]1C(=O)N[C@@H](Cc1ccc(O)cc1)C(=O)N[C@H](C(=O)N[C@@H](CCC(=O)O)C(=O)N1CCC[C@H]1C(=O)N[C@H](C(=O)N[C@@H](C)C(=O)N1CCC[C@H]1C(N)=O)[C@@H](C)O)C(C)C` [HTLV1 ter] (Ac-PPPYVEPTAP-NH2) the ΔHap (hNEDD4-WW3 [1]; pH 7) was -17.7 ± 0.19 kcal/mol, the Kd (hYAP-WW1 [8]) was “n. b” and the Kd (hYAP-WW2 [4]) was “n. b”.

In the case of “ELESPPPPYSRYPMD [Smad7, Smad7 peptide […] of literature complexes 2LTY, 2LTX, 2LTZ, 2LTV, 2LTW]”, the Kd (NEDD4L-WW2) is given as 4.2 µM, the Kd (SMURF1-WW2) is given as 4.2 µM and the Kd (SMURF2-WW3) is given as 4.5 µM. The Kd (hYAP-WW1 [7]) was 6.9 µM and the Kd (hYAP-WW2 [9]) was 60 µM.

For `CC(=O)N[C@@H](CCC(=O)O)C(=O)N[C@@H](Cc1ccc(O)cc1)C(=O)N1CCC[C@H]1C(=O)N1CCC[C@H]1C(=O)N[C@@H](Cc1ccc(O)cc1)C(=O)N1CCC[C@H]1C(=O)N1CCC[C@H]1C(=O)N1CCC[C@H]1C(=O)N1CCC[C@H]1C(=O)N[C@@H](Cc1ccc(O)cc1)C(=O)N1CCC[C@H]1C(=O)N[C@@H](CO)C(=O)NCC(N)=O` [p53bp2] (Ac-EYPPYPPPPYPSG-NH2), the “binding selectivity between hNEDD4-WW3, YAP-WW1 and YAP-WW2” value (hNEDD4-WW3 [1]) was “do not distinguish between the three WW domains”, the Kd (hNEDD4-WW3 [1]) was 4.1 µM and 5.3 µM and 9.1 µM and the ΔCp (hNEDD4-WW3 [1]; pH 7) was −1.59 kJ K^−1 mol^−1 and −1.59 ± 0.01 kJ K^−1 mol^−1. It also gave a ΔHap (hYAP-WW2 [4]) of -13.6 ± 0.24 kcal/mol.

In the case of “GSTLPIPGTPPPNYDSL [βENaC, βENaC peptide of literature complex 1I5H]”, the Kd (hNEDD4-WW3 [3]) is listed as 21 µM.

For “NTGAKQPPSYEDCIK [Notch, Notch peptide of literature complex 2JMF]”, the Kd (SU(dx)-WW4) is listed as 45 µM.

For “GTPPPPYTVG [WBP1, WBP1 peptide of literature complex 1JMQ]”, the Kd (hYAP-WW1 [7]) is listed as 40 µM.

With `CC(=O)N[C@@H](CC(=O)O)C(=O)N[C@@H](CC(C)C)C(=O)N[C@@H](Cc1c[nH]c2ccccc12)C(=O)N[C@@H](CC(C)C)C(=O)N1CCC[C@H]1C(=O)N1CCC[C@H]1C(=O)N1CCC[C@H]1C(=O)N[C@@H](CCC(=O)O)C(=O)N[C@@H](Cc1ccc(O)cc1)C(=O)N[C@H](C(=O)N1CCC[C@H]1C(=O)N[C@@H](CC(C)C)C(N)=O)C(C)C` [Rabies] the Kd (hNEDD4-WW3 [1]) was 51 ± 1 µM, the ΔHap (hNEDD4-WW3 [1]; pH 7) was -15.7 ± 0.19 kcal/mol and the ΔHap (hYAP-WW1 [8]) was -15.2 ± 0.22 kcal/mol. For the same compound, the Kd (hYAP-WW2 [4]) was “n. b”.

In the case of “RLDLPPYETFEDI [HECT-Cterm, HECT C-terminal peptide of literature complex 2MPT]”, the Kd (hNEDD4L-WW3) is listed as 4 µM.

In the case of “GPPPY ({n‑octyl}-GPPPY) [peptide of literature complex 1K9Q]”, the Kd (hYAP-WW1 [7]) is given as 700 µM.
